This is an account of results in patent US20220347167A1, “A NEW TREATMENT FOR MEIBOMIAN GLAND DYSFUNCTION” (The Schepens Eye Research Institute, Inc., priority 2019, published 2022).

In assay [1] the test system is apolipoprotein E-deficient (ApoE −/−) mice. In words: MGD model in ApoE −/− mice: tear volume and meibomian gland size. It is filed as in vivo, mouse. The settings on record: Roxa 10 mg/kg subcutaneous, three times per week for 12 weeks. The method, then: Two groups of ApoE KO mice (vehicle-treated ApoE −/−, as control, and Roxa-treated ApoE −/−), as well as wild-type C57BL/6J mice, were measured for weight, tear volume, corneal fluorescein staining and tear breakup time (TBUT). ApoE −/− mice were randomly divided into 2 groups (n=8 mice/group): control and Roxa-treated. The ApoE−/− mice were treated with vehicle control (2% DMSO in sterile saline, subcutaneous injection) or Roxa (10 mg/kg, subcutaneous injection). The injections were administrated three times/week; on Monday, Wednesday, and Friday mornings; for 12 weeks. At the end of the study, the weight, tear volume, corneal fluorescein staining and tear breakup time (TBUT) were weighted again for comparison. The bar chart in FIG. 6 compares mean tear volume of each group of mice after treatment.
After the Roxa treatment, as described in FIG. 6, the eyelids of each mouse were dissected to assess meibomian gland size and morphology. […]
At the beginning of the study, the 16 ApoE−/− mice and 4 wild-type (WT) C57BL/6J mice, 12 weeks of age, were measured for their weight, tear volume, corneal fluorescein staining and tear breakup time (TBUT). […] At the end of the study, the weight, tear volume, corneal fluorescein staining and tear breakup time (TBUT) were measured again. […]

In a further assay the test system is IHMGECs. Nature of the assay: Intracellular pH in IHMGECs. To be noted: exposure to Roxa, in vitro. It is filed as cell-based, human. The source says:
It was recently discovered that a hypoxic environment is beneficial for meibomian gland (MG) function. The mechanism(s) underlying this effect was unknown, but may be due to an increase in the levels of hypoxia-inducible factor 1α (HIF1a). In other tissues, HIF1α is the primary regulator of cellular responses to hypoxia and HIF1α expression can be induced by multiple stimuli, including hypoxia and low oxygen mimetic agents. In the current studies described in this Example, human eyelid tissues were stained for HIF1α. Immortalized human MG epithelial cells (IHMGECs) were cultured for varying time periods under normoxic (21% O2) or hypoxic (1% O2) conditions, in the presence or absence of the low oxygen mimetic agent Roxadustat (Roxa). IHMGECs were then processed for the analysis of cell number, HIF1α expression, lipid-containing vesicles, neutral and polar lipid content, DNase II activity and intracellular pH. […] The data support that the beneficial effect of hypoxia on the MG is mediated through an increased expression of HIF1α.

The nature of assay [2]: Percentage of weight gain in ApoE −/− mice. It is filed as in vivo, mouse. The settings on record: Roxa 10 mg/kg subcutaneous, three times per week for 12 weeks, vs vehicle, p<0.05. The method, then: The whole blood samples of mice were collected by cardiac puncture after sacrificing. The blood samples were allowed to clot by leaving it undisturbed at room temperature for 15 minutes. The clot was removed by centrifuging at 1,000-2,000×g for 10 minutes in a refrigerated centrifuge. The resulting supernatant was designated serum. Then the cholesterol level in the serum was evaluated by using a commercially available cholesterol fluorometric assay kit (#10007640, Cayman Chemical, Mich.). The weight of each mice was measured before and after the experiment. The percentage of weight gain was compared between the Roxa-treated mice and the vehicle-treated mice.
At the beginning of the study, the 16 ApoE−/− mice and 4 wild-type (WT) C57BL/6J mice, 12 weeks of age, were measured for their weight, tear volume, corneal fluorescein staining and tear breakup time (TBUT). The ApoE −/− mice were randomly divide into 2 groups (n=8 mice/group) and treated with vehicle control (2% DMSO in sterile saline, subcutaneous injection) or Roxa (10 mg/kg, subcutaneous injection). The injections were administrated three times per week (on Monday, Wednesday, and Friday mornings) for 12 weeks. […] At the end of the study, the weight, tear volume, corneal fluorescein staining and tear breakup time (TBUT) were measured again. […]

Another assay has as its system MG cells. In words: Staining of dissected mouse eyelids for MG cell differentiation markers. The assay is classed as in vivo. The settings on record: eyelids of Roxa-treated ApoE −/− mice. The source says:
The mice eyelids were collected and dissected after sacrificing. The dissected samples were stained with different antibodies and dyes for lipids. For example, the dissected mice lid samples were stained with Oil Red O and LipidTox™ (Invitrogen) for evaluation of lipid accumulation. The sections were stained for pimonidazole, DNase II, HIF1α, PPARγ, Desmoglein and Desmocollin for the evaluation of cell differentiation and maturation. […] These markers include intracellular lipid accumulation, as well as expression of peroxisome proliferator-activated receptor gamma (PPAR-γ), Desmoglein and Desmocollin in MG cells.

Molecules are shown by their SMILES.

In the case of `Cc1nc(C(=O)NCC(=O)O)c(O)c2ccc(Oc3ccccc3)cc12` [Roxa, roxadustat], the tear volume entry in assay [1] (vs control group and WT mice, p<0.01) is reported as “significantly increased”. Besides, in assay [1] (vs control group, p<0.05), the “meibomian gland loss in the mice eyelids (MG area)” value is reported as “significantly reduced”. In addition, the “pH in IHMGECs” value in the assay with IHMGECs was “decreases”. In assay [2], the “percentage of weight gain” value was “significantly reduced”. For the same compound, in the assay with MG cells, the “expression of Desmocollin in MG cells” value is recorded as “promoted expression”, the “expression of Desmoglein in MG cells” value was “promoted expression”, the “expression of peroxisome proliferator-activated receptor gamma (PPAR-γ) in MG cells” value is reported as “promoted expression” and the “intracellular lipid accumulation in MG cells (differentiation marker)” value was “promoted expression”.
